Assay results from patent US20220218667A1, “DUAL INHIBITORS OF SOLUBLE EPOXIDE HYDROLASE AND METHODS OF USE THEREOF” (OROX Biosciences, Inc., priority 2019, published 2022).
Entries after “also recorded” stand apart in the source; their conditions may differ.

Assays:
human sEH = biological target: T1, human sEH (Homo sapiens, UniProt P34913); assay: sEH inhibition IC50, fluorescent-based assay with purified recombinant sEH; assay type: biochemical; conditions: in vitro, relative to OX1
T1 sequence (P34913 1-555): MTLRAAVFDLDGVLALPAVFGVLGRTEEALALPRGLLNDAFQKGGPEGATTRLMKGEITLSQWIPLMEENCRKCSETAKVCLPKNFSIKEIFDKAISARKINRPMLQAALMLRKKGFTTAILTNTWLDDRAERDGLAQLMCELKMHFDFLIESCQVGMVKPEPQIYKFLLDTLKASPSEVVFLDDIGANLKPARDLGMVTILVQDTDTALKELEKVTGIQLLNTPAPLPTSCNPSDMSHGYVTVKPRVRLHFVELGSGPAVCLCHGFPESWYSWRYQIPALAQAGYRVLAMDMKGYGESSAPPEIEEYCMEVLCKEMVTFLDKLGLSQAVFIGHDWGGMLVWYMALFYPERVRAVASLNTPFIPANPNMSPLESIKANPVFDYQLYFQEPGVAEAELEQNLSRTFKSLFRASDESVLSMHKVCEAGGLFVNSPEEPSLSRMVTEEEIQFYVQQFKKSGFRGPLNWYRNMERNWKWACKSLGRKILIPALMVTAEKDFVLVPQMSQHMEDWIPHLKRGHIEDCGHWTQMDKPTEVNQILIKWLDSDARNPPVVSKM
Description: sEH inhibition IC50 values for the compounds presented herein can be assayed by a recombinant affinity assay using purified sEHs, from human, mouse or rat, in a fluorescent-based assay. In such an assay, enzymes, e.g., ˜1 nM human sEH, are incubated with a potential inhibitors for 5 min in 25 mM Bis-Tris/HCl buffer (200 μL; pH 7.0) at 30° C. before a substrate, e.g., cyano(2-methoxynaphthalen-6-yl)methyl trans-(3-phenyl-oxyran-2-yl)methyl carbonate, (CMNPC) is added ([S]final=5 μM).

COX-2 = biological target: T2, COX-2 (Homo sapiens, UniProt P35354); assay: COX-2 inhibition IC50, COX Fluorescent Inhibitor Screening Assay; assay type: biochemical
T2 construct: purchased Cayman Chemical 700100
T2 sequence (P35354 18-604): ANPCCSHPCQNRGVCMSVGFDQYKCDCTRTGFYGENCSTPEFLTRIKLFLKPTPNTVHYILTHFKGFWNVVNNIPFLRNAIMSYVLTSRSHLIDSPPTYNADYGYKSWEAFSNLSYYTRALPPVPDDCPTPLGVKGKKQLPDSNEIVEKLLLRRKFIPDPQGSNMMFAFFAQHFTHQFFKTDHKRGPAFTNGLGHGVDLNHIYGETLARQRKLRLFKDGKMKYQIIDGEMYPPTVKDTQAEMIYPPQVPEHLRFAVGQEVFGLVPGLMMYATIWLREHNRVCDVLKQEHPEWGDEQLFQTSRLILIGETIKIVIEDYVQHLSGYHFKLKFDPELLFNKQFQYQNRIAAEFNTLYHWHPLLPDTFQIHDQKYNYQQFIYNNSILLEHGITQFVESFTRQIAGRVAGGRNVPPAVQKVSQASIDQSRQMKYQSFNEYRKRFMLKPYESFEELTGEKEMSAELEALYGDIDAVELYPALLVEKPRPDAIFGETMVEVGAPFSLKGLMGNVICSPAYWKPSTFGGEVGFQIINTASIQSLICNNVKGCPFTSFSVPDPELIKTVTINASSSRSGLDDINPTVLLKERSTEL
Description: A COX Fluorescent Inhibitor Screening Assay Kit (catalog number 700100, Cayman Chemical, Ann Arbor, Mich.) is useful for assaying the ability of the compounds provided herein to inhibit ovine COX-1 and human recombinant COX-2 (% inhibition at 100 μM and IC50 values (M), respectively). Stock solutions of test compounds are dissolved in a minimum volume of DMSO. 10 μl of various concentrations of the test compound solutions, e.g., [I]final between 0.01 and 100 μM, are added to a series of supplied reaction buffer solutions (150 μl, 100 mM Tris-HCl, pH 8.0) with either COX-1 or COX-2 (10 μl) enzyme in the presence of Heme (10 μl) and a fluorometric substrate (10 μl). The reactions are initiated by quickly adding 10 μl of arachidonic acid solution and then incubating the system for two minutes at room temperature. Fluorescence of resorufin, which is produced by the reaction between PGG2 and fluorometric substrate, ADHP (10-acetyl-3,7-dihydroxyphenoxazine), is analyzed with an excitation wavelength of 535 nm and an emission wavelength of 590 nm. The intensity of this fluorescence is proportional to the amount of resorufin, which is proportional to the amount of PGG2 present in the well during the incubation. Percent inhibition is calculated by comparison from the 100% initial activity sample value (no inhibitor).

[1] = system: C57B/L6 mice exposed to bleomycin; assay: Example 1: prophylactic treatment of mice exposed to bleomycin (IPF model); assay type: in vivo, mouse; conditions: OX1, OX3, Nintedanib 30 mg/kg QD, Pirfenidone 100 mg/kg BID
Text: 4-(5-phenyl-3-{3-[3-(4-trifluoromethyl-phenyl)-ureido]-propyl}-pyrazol-1-yl)-benzenesulfonamide (PTUPB) [termed OX1] was compared to Pirfenidone, Nintedanib, and GSK225629415 [termed OX3] for treatment of IPF using an established model for IPF treating, which is prophylactic treatment of mice exposed to the chemotherapeutic agent bleomycin. […] Pirfenidone and Nintedanib are standard of care for the treatment of idiopathic pulmonary fibrosis and served as reference compounds in the experiment.
C57B/L6 mice were used in the experiments. When used, Bleomycin was administered intra-oropharyngeally, 1.5 U/kg, QD per established protocol. The test articles were dosed via oral gavage in 200 μL/day vehicle. The doses and formulations of test articles were selected based on the literature describing the lowest doses capable of eliciting pharmacological action.
Animals were dosed with the test articles (or vehicle) starting at day −1 to day 20. On day 1, daily doses of Bleomycin commenced in all but group 1 (negative control) which received the vehicle. On day 21, all animals were weighed and sacrificed. After lungs and bronco-alveolar lavage fluid (BALF) were harvested, they were prepared according to standard procedures for further analysis and histology. All animals were assessed twice a week for body weight and overall appearance. Efficacy endpoints measured in this study included lung weight, total leukocytes, and histology as determined by Mason's Trichrome stain and scored using a modified Ashcroft score.
The following parameters were measured in bronchoalveolar fluid (BALF): 1) soluble collagen and 2) differential leukocyte counts for different leukocyte populations.
After weighing and removal of BALF from the lungs, they were inflated and fixed using 10% neutral buffered formalin for histopathology analysis. Fifty-four formalin-fixed lung samples from mice were submitted to HistoTox Labs and were processed routinely. Two slides from each block were sectioned and stained with hematoxylin and eosin (H&E) or Masson's trichrome. Glass slides were evaluated with light microscopy by a board-certified veterinary pathologist. Lung sections were scored according to the modified Ashcroft scale.

[2] = day 21, compared to vehicle (Group 2)

CNc1nc(C)nc(N[C@H]2CCC[C@@H](C(=O)NCc3ccc(C#N)cc3C(F)(F)F)C2)n1 [OX3]
fold more potent against sEH than OX1 (human sEH): roughly 75 fold | IC50 (COX-2): > 1000 nM | times less potent on COX-2 than OX1 (COX-2; in vitro, relative to OX1): at least 10 times | body weight course over 21 days ([1]; bleomycin mice, oral gavage day -1 to 20): lost the least weight; also recorded: sustained weight loss | neutrophil migration into BALF ([1]; day 21, oral): somewhat effective | number of lymphocytes in BALF ([1]; day 21, oral): trend increasingly lower | number of macrophages in BALF ([1]; day 21, oral): more macrophages | total cell (leukocyte) count in BALF ([1]; day 21, oral): did not demonstrate the same level of reduction | increased collagen (fibrosis) score, trichrome [1, 2]: slightly lower | mean Ashcroft score (lung histology) [1, 2]: slightly lower | mean score for mixed peribronchiolar/perivascular inflammation [1, 2]: lower
